IC50 data for nine compounds are collected here from paper PMC5376326, “Inhibition of ANO1 by luteolin and its cytotoxicity in human prostate cancer PC-3 cells” (PLoS ONE, 2017).

One experiment concerns the target T1, human ANO1 (abc) (Homo sapiens, UniProt Q5XXA6, DEL476-501).
T1 sequence (Q5XXA6 with tags, fused parts or gaps isoform Q5XXA6-5 DEL539-564): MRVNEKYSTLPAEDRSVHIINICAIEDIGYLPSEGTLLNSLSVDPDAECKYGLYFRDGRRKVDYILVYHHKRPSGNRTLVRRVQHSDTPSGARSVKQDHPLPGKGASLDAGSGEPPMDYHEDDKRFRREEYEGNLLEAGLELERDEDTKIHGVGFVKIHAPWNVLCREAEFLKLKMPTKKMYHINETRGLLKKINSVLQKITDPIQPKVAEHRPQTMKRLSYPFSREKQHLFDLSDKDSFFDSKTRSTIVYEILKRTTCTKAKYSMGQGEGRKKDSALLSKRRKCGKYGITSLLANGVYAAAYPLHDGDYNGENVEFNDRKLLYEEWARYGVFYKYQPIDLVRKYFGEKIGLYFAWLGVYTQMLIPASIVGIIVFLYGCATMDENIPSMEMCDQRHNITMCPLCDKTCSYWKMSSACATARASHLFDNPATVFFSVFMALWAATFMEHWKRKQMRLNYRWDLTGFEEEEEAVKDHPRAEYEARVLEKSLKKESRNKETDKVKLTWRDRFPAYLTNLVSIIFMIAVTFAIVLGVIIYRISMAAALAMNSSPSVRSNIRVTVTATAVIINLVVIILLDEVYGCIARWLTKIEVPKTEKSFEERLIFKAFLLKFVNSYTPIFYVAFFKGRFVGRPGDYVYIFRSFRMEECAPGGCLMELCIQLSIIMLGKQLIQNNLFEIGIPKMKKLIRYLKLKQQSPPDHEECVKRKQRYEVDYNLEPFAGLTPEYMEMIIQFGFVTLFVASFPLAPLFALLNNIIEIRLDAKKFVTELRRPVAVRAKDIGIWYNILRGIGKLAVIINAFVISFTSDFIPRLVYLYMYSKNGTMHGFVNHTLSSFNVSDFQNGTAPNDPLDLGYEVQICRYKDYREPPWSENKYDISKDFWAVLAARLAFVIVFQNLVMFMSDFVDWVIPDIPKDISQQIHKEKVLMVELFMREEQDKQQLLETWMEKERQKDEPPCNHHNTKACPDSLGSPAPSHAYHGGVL
The experiment in a line: YFP fluorescence quenching assay (iodide influx) in FRT cells expressing human ANO1. To be noted: FRT cells expressing ANO1 and YFP; ATP activation; mean ± S.E., n = 3; read-out: IC50, ANO1 inhibition (YFP fluorescence quenching). Format: cell-based. The protocol:
Fisher rat thyroid (FRT) cells were stably transfected with human ANO1 (abc) or mouse ANO2 and the halide sensor YFP as described in previous study. FRT cells were cultured in Coon`s modified F12 medium with 10% FBS, 2 mM L-glutamine, 100 units/ml penicillin and 100 μg/ml streptomycin at 37°C and 5% CO2. PC-3 cells were grown in RPMI 1640 medium supplemented with 10% FBS, 100 units/ml penicillin and 100 μg/ml streptomycin at 37°C and 5% CO2. There were populations of PC-3 cells with high and low expression of ANO1. To separate high and low levels of ANO1 expressing PC-3 cells, cells were stably transfected with the halide sensor YFP-H148Q/I152L/F46L and then the cells were plated on 96 well plates at 1 cell per well. After two weeks of incubation, high and low levels of ANO1 expressing PC-3 cells were separated by YFP quenching assay. ANO1 was activated by 100 μM ATP.
ANO1 and YFP expressing FRT cells were plated in 96-well black-walled microplates (Corning Inc., Corning, NY) at a density of 20,000 cells per well. Assays were done using FLUOstar Omega microplate reader (BMG Labtech, Ortenberg, Germany) and MARS Data Analysis Software (BMG Labtech) as described in our previous study. Briefly, each well of 96-well plate was washed 3 times in PBS (200 μL/wash) and test compounds were added to each well at 25 μM final concentration. After 10 minutes incubation at 37°C, 96-well plates were transferred to the plate reader for fluorescence assay. Each well was assayed individually for ANO1-mediated I^- influx by monitoring YFP fluorescence continuously (400 ms per point) for 2 s (baseline), then 140 mM I^- solution containing 200 μM ATP was added at 2 s and then YFP fluorescence was recorded for 6 s. Initial iodide influx rate was determined from the initial slope of fluorescence decrease, by nonlinear regression, following infusion of iodide with ATP.

For another experiment, the system named is ANO1. To be noted: read-out: IC50, ANO1 inhibition; cited from earlier work.

Usually IC50 stands for the concentration that inhibits the measured activity by half. On to `O=c1cc(-c2ccc(O)cc2)oc2cc(O)cc(O)c12` [Apigenin], for which the IC50 at human ANO1 (abc) was found to be 15.79 ± 0.03 µM.

In the case of `O=c1cc(-c2ccccc2)oc2cc(O)c(O)c(O)c12` [Baicalein], on human ANO1 (abc), the IC50 came to 49.6 ± 0.05 µM.

`CC(C)(C)C1CCc2c(sc(NC(=O)c3ccco3)c2C(=O)O)C1` (stereo not drawn) [CaCCinh-A01]: the IC50 in the experiment on ANO1 was […].

Turning to `O=c1cc(-c2ccccc2)oc2cc(O)cc(O)c12` [Chrysin], on human ANO1 (abc), the IC50 amounted to 15.15 ± 0.1 µM.

As to `O=c1c(O)c(-c2ccccc2)oc2cc(O)cc(O)c12` [Galangin], the IC50 at human ANO1 (abc) came out at 9.66 ± 0.01 µM.

Consider `COc1cc(Nc2ccc([N+](=O)[O-])cc2C(=O)O)cc2ccccc12` [MONNA], for which, in the experiment on ANO1, the IC50 is around 1 µM.

In the case of `CCc1c(C)nc(SCC(=O)Nc2nc(-c3ccc(OC)cc3)cs2)[nH]c1=O` [T16Ainh-A01], the IC50 in the experiment with ANO1 is around 1 µM.

As to `COC1=C(OC)C(=O)C(CCCCCCCCCCO)=C(C)C1=O` [idebenone], the IC50 in the experiment on ANO1 is around 9 µM.

Consider tannic acid, for which, in the experiment on ANO1, the IC50 was around 6 µM.
